Data from PMC8129133, “Polymer-free corticosteroid dimer implants for controlled and sustained drug delivery” (Nature Communications, 2021).
Values joined by “and” are separate entries in the source; they are usually repeats but may differ in a detail not shown here. Equal values may be shown once.

Experiment: In vitro release
Type: physicochemical
Conditions: for Cumulative Dex (%): Fig 4b pellet 1x1 mm; for 23G x 6 mm - Cumulative Dex Release, % / 30G x 6 mm - Cumulative Dex Release, % / 23G x 6 mm - Cumulative Dex Release / 30G x 6 mm - Cumulative Dex Release: Fig 4e; for 23G x 6 mm - Cumulative Dex Release, % / 30G x 6 mm - Cumulative Dex Release, %: AVG; for 23G x 6 mm - Cumulative Dex Release / 30G x 6 mm - Cumulative Dex Release: single samples and AVG
Protocol: Pellets for release studies. Crystalline drug dimers were weighed on a stainless steel coupon. In the case of blends with a second drug, the dimer and drug were mixed at the desired mass ratio with mortar and pestle prior to weighing. Samples were transferred to a heat press (Carver Laboratory Press). A PTFE mold containing an array of 1 mm diameter holes of 1 mm depth was placed on top of the melt, and pressure was applied for 2 min. Molded pellets were cooled to room temperature and punched out of the mold, yielding a pellet of 1 mm height × 1 mm diameter.
Release studies were carried out using different media, including PBS (pH 7.4, Gibco), 100% FBS (Sigma, F1051), 1% FBS in PBS pH 7.4, and 3.6% BSA (Sigma, A7906) in PBS (pH 7.4, Gibco). […] Samples were incubated in release medium at 37 °C under constant agitation on an orbital shaker at 115 rpm (VWR). At designated timepoints, sampling was performed by complete removal of medium and replenishment with fresh buffer. Sampling timepoints included 24 h and then every 3–4 days thereafter. For PBS release conditions, samples were analyzed directly. For samples with protein (100% FBS, 1% FBS, 3.6% BSA), protein was precipitated by addition of acetonitrile. Samples were vortexed and centrifuged to separate extracted drug from precipitated protein. The supernatant was then analyzed for drug concentration by HPLC.

## C[C@@H]1C[C@H]2[C@@H]3CCC4=CC(=O)C=C[C@]4(C)[C@@]3(F)[C@@H](O)C[C@]2(C)[C@@]1(O)C(=O)COC(=O)OCCOCCOCCOC(=O)OCC(=O)[C@@]1(O)[C@H](C)C[C@H]2[C@@H]3CCC4=CC(=O)C=C[C@]4(C)[C@@]3(F)[C@@H](O)C[C@@]21C [Dex-TEG-Dex]
1% FBS, Day 1
  Cumulative Dex (%): 0.0326% and 0.0366% and 0.0447%
1% FBS, Day 3
  Cumulative Dex (%): 0.11% and 0.12% and 0.13%
1% FBS, Day 7
  Cumulative Dex (%): 0.35% and 0.44% and 0.38%
1% FBS, Day 10
  Cumulative Dex (%): 0.52% and 0.59% and 0.51%
1% FBS, Day 14
  Cumulative Dex (%): 0.81% and 0.96% and 0.85%
1% FBS, Day 17
  Cumulative Dex (%): 0.94% and 1.07% and 1.04%
1% FBS, Day 21
  Cumulative Dex (%): 1.22% and 1.44% and 1.42%
1% FBS, Day 24
  Cumulative Dex (%): 1.37% and 1.56% and 1.61%
1% FBS, Day 28
  Cumulative Dex (%): 1.58% and 1.84% and 1.93%
1% FBS, Day 31
  Cumulative Dex (%): 1.78% and 2.05% and 2.12%
1% FBS, Day 35
  Cumulative Dex (%): 1.95% and 2.46% and 2.48%
100% FBS, Day 1
  Cumulative Dex (%): 1.59% and 1.88% and 1.25%
100% FBS, Day 3
  Cumulative Dex (%): 6.12% and 9.16% and 4.64%
100% FBS, Day 7
  Cumulative Dex (%): 11.07% and 13.41% and 9.59%
100% FBS, Day 10
  Cumulative Dex (%): 15.60% and 21.36% and 19.29%
100% FBS, Day 14
  Cumulative Dex (%): 21.12% and 26.30% and 23.66%
100% FBS, Day 17
  Cumulative Dex (%): 25.65% and 33.52% and 29.96%
100% FBS, Day 21
  Cumulative Dex (%): 29.80% and 39.06% and 33.88%
100% FBS, Day 24
  Cumulative Dex (%): 34.99% and 43.22% and 37.26%
100% FBS, Day 28
  Cumulative Dex (%): 41.40% and 49.76% and 42.62%
100% FBS, Day 31
  Cumulative Dex (%): 49.48% and 56.79% and 48.41%
100% FBS, Day 35
  Cumulative Dex (%): 52.66% and 62.41% and 52.08%
PBS, Day 1
  Cumulative Dex (%): 0.0268% and 0.0111% and 0.0155%
PBS, Day 7
  Cumulative Dex (%): 0.06% and 0.0341% and 0.04%
PBS, Day 10
  Cumulative Dex (%): 0.075% and 0.04% and 0.05%
PBS, Day 14
  Cumulative Dex (%): 0.09% and 0.05% and 0.06%
PBS, Day 17
  Cumulative Dex (%): 0.10% and 0.0566% and 0.07%
PBS, Day 21
  Cumulative Dex (%): 0.12% and 0.07% and 0.09%
PBS, Day 24
  Cumulative Dex (%): 0.13% and 0.08% and 0.10%
PBS, Day 28
  Cumulative Dex (%): 0.15% and 0.09% and 0.11%
PBS, Day 31
  Cumulative Dex (%): 0.16% and 0.11% and 0.12%
PBS, Day 35
  Cumulative Dex (%): 0.17% and 0.12% and 0.13%
Day 3
  23G x 6 mm - Cumulative Dex Release, %: 1.00%
  30G x 6 mm - Cumulative Dex Release, %: 4.68%
  23G x 6 mm - Cumulative Dex Release: 3729.09 ng and 2929.83 ng and 3290.92 ng and 3423.46 ng and 3390.39 ng and 4152.03 ng
  30G x 6 mm - Cumulative Dex Release: 3437.65 ng and 3035.80 ng and 2955.67 ng and 2307.19 ng and 3016.47 ng
Day 3, mean
  23G x 6 mm - Cumulative Dex Release: 3485.95 ng
  30G x 6 mm - Cumulative Dex Release: 2950.56 ng
Day 8
  23G x 6 mm - Cumulative Dex Release, %: 1.83%
  30G x 6 mm - Cumulative Dex Release, %: 10.16%
  23G x 6 mm - Cumulative Dex Release: 7366.47 ng and 5713.70 ng and 5752.02 ng and 6286.74 ng and 6353.56 ng and 6670.93 ng
  30G x 6 mm - Cumulative Dex Release: 7053.30 ng and 6157.33 ng and 6454.99 ng and 5803.26 ng and 6543.46 ng
Day 8, mean
  23G x 6 mm - Cumulative Dex Release: 6357.24 ng
  30G x 6 mm - Cumulative Dex Release: 6402.47 ng
Day 10
  23G x 6 mm - Cumulative Dex Release, %: 2.30%
  30G x 6 mm - Cumulative Dex Release, %: 11.65%
  23G x 6 mm - Cumulative Dex Release: 9158.12 ng and 7456.22 ng and 6722.99 ng and 8377.04 ng and 7947.05 ng and 8287.22 ng
  30G x 6 mm - Cumulative Dex Release: 7909.95 ng and 7094.85 ng and 7391.21 ng and 6693.85 ng and 7620.80 ng
Day 10, mean
  23G x 6 mm - Cumulative Dex Release: 7991.44 ng
  30G x 6 mm - Cumulative Dex Release: 7342.13 ng
Day 14
  23G x 6 mm - Cumulative Dex Release, %: 3.12%
  30G x 6 mm - Cumulative Dex Release, %: 14.82%
  23G x 6 mm - Cumulative Dex Release: 11851.57 ng and 10258.34 ng and 8632.68 ng and 12053.80 ng and 11294.23 ng and 11036.15 ng
  30G x 6 mm - Cumulative Dex Release: 9732.58 ng and 9343.08 ng and 9295.87 ng and 8576.11 ng and 9731.17 ng
Day 14, mean
  23G x 6 mm - Cumulative Dex Release: 10854.46 ng
  30G x 6 mm - Cumulative Dex Release: 9335.76 ng
Day 17
  23G x 6 mm - Cumulative Dex Release, %: 3.78%
  30G x 6 mm - Cumulative Dex Release, %: 17.41%
  23G x 6 mm - Cumulative Dex Release: 14384.84 ng and 12536.91 ng and 10299.95 ng and 14655.10 ng and 13823.20 ng and 13226.26 ng
  30G x 6 mm - Cumulative Dex Release: 11350.14 ng and 11189.72 ng and 10651.54 ng and 10149.26 ng and 11503.70 ng
Day 17, mean
  23G x 6 mm - Cumulative Dex Release: 13154.38 ng
  30G x 6 mm - Cumulative Dex Release: 10968.87 ng
Day 21
  23G x 6 mm - Cumulative Dex Release, %: 4.61%
  30G x 6 mm - Cumulative Dex Release, %: 21.03%
  23G x 6 mm - Cumulative Dex Release: 17889.27 ng and 15640.68 ng and 12427.10 ng and 17536.82 ng and 17079.10 ng and 15733.26 ng
  30G x 6 mm - Cumulative Dex Release: 13690.06 ng and 13583.23 ng and 12649.08 ng and 12021.08 ng and 14305.00 ng
Day 21, mean
  23G x 6 mm - Cumulative Dex Release: 16051.04 ng
  30G x 6 mm - Cumulative Dex Release: 13249.69 ng
Day 24
  23G x 6 mm - Cumulative Dex Release, %: 5.14%
  30G x 6 mm - Cumulative Dex Release, %: 23.23%
  23G x 6 mm - Cumulative Dex Release: 20230.97 ng and 17190.29 ng and 13784.68 ng and 19329.36 ng and 19335.19 ng and 17491.78 ng
  30G x 6 mm - Cumulative Dex Release: 15132.41 ng and 14970.59 ng and 13925.27 ng and 13373.61 ng and 15759.23 ng
Day 24, mean
  23G x 6 mm - Cumulative Dex Release: 17893.71 ng
